Laboratory results: patent US20050222040A1, “Vertebrate peptide modulators of lipid metabolism” (BLM Group, Inc., priority 2004, published 2005)
Non-standard residues stand in square brackets, D forms with d. No end group written: not given here. pGlu = O=C1CC[C@@H](C(=O)O)N1

Test system: human adipocytes
Assay: Glycerol release assay (lipolysis) in differentiated human adipocytes
Type: cell-based
Settings: for Percent Glycerol Release over Background / glycerol releasing activity (result in words): human adipocytes in vitro; for lipid mobilization activity of insect AKH/HTP peptides and alanine walk analogs (result in words): Example 2, Table 8 peptides; for glycerol releasing activity (result in words): 100 nanomolar, 1 micromolar and 10 micromolar
Method: Two assay methods, giving equivalent results, can be used. The results disclosed in Example 2, below, were obtained using an in vitro assay based on measurement of glycerol released into the medium. An alternative assay system, based on the release of radioisotope from adipocytes incubated overnight with 9,10 ^3H-palmitate, can also be used.
Human subcutaneous preadipocytes, obtained by liposuction (Zen-Bio, Inc. Research Triangle Park, N.C.), are cultured for 3 weeks in 96-well plates in Differentiation medium (DMEM/Hams F10 [1/1, v/v], 15 mM Hepes buffer, 3% FBS, Penicillin/Streptomycin, 33 uM Biotin 17 uM Pantothenate, 100 nM human insulin, 0.5 uM Dexamethasone, 0.2 mM IBMX, and 10 uM thiazolidinedione.
The assay based on glycerol release is performed by removing the culture medium from differentiated cells, treating the cells with 0.1 ml of the test compounds at the appropriate doses in adipocyte medium (DMEM/Hank's F-10, 15 mM HEPES buffer, 3% FBS, penicillin/streptomycin) followed by incubation at 37 degrees Celsius for 2-5 hours. Isoproterenol is used as positive control and all assays are done in triplicate. At the end of the time points, 0.1 ml of the conditioned media from each well is transferred to a well of a new plate. Glycerol is quantified using standard enzymatic methods, with absorption by oxidized quinoneimine at 540 nm. Briefly, lipolytic activity can be assayed simply by the measurement of glycerol released into the medium since glycerokinase activity is not present in adipocytes (Carpene, C., Methods in Molecular Biology 155: Adipose Tissue Protocols, 1999). Glycerol released to the medium is phosphorylated by adenosine triphosphate (ATP) forming glycerol-1-phosphate (G-1-P) and adenosine-5′-diphosphate (ADP) in the reaction catalyzed by glycerol kinase. G-1-P is then oxidized by glycerol phosphate oxidase to dihydroxyacetone phosphate (DAP) and hydrogen peroxide (H2O2). […] The increase in absorbance at 540 nm is directly proportional to glycerol concentration of the sample.

[1] = peptide concentration 1 micro M
[2] = peptide concentration 10 micro M

Molecule	Percent Glycerol Release over Background (peptide concentration 100 nM) [%]	Percent Glycerol Release over Background [1] [%]	Percent Glycerol Release over Background [2] [%]	lipid mobilization activity of insect AKH/HTP peptides and alanine walk analogs (result in words)	glycerol releasing activity (result in words)
CC(C)NCC(O)c1ccc(O)c(O)c1 (stereo not shown) [Iso, Isoproterenol, reference compound]	213	262	206	–	–
QLNFTASW [Peptide 53]	3.8	36.8	18.9	–	–
QLNFTASW-NH2 [Peptide 54]	2.8	4.7	8.5	–	–
QLNFTASWG [Peptide 52]	0.9	13.2	17	–	–
QLNFTASWG-NH2 [Peptide 72]	18	11.3	18.9	–	–
pGlu-Leu-Asn-Phe-Ser-Thr-Gly-TrpNH2 ([pGlu]LNFSTGW-NH2; SMILES CC(C)C[C@H](NC(=O)[C@@H]1CCC(=O)N1)C(=O)N[C@@H](CC(N)=O)C(=O)N[C@@H](Cc1ccccc1)C(=O)N[C@@H](CO)C(=O)N[C@H](C(=O)NCC(=O)N[C@@H](Cc1c[nH]c2ccccc12)C(N)=O)[C@@H](C)O; listed as Schistocerca gregaria) [SEQ ID NO: 17, reference compound]	–	–	–	active	–
pGlu-Leu-Asn-Phe-Thr-Ala-Ser-Trp ([pGlu]LNFTASW; listed as Homo sapiens) [Peptide 60]	–	–	–	–	no measurable activity
pGlu-Leu-Asn-Phe-Thr-Ala-Ser-Trp-Gly ([pGlu]LNFTASWG; listed as Homo sapiens) [Peptide 51]	3.8	24.5	34.9	–	–
pGlu-Leu-Asn-Phe-Thr-Ala-Ser-Trp-GlyNH2 ([pGlu]LNFTASWG-NH2; SMILES CC(C)C[C@H](NC(=O)[C@@H]1CCC(=O)N1)C(=O)N[C@@H](CC(N)=O)C(=O)N[C@@H](Cc1ccccc1)C(=O)N[C@H](C(=O)N[C@@H](C)C(=O)N[C@@H](CO)C(=O)N[C@@H](Cc1c[nH]c2ccccc12)C(=O)NCC(N)=O)[C@@H](C)O; listed as Homo sapiens) [Peptide 73]	0	0.9	3.8	–	low activity
pGlu-Leu-Asn-Phe-Thr-Ala-Ser-TrpNH2 ([pGlu]LNFTASW-NH2; SMILES CC(C)C[C@H](NC(=O)[C@@H]1CCC(=O)N1)C(=O)N[C@@H](CC(N)=O)C(=O)N[C@@H](Cc1ccccc1)C(=O)N[C@H](C(=O)N[C@@H](C)C(=O)N[C@@H](CO)C(=O)N[C@@H](Cc1c[nH]c2ccccc12)C(N)=O)[C@@H](C)O; listed as Homo sapiens) [Peptide 55]	1.9	5.7	13.2	–	low activity
pGlu-Leu-Asn-Phe-Thr-Pro-Asn-Trp-Gly-ThrNH2 ([pGlu]LNFTPNWGT-NH2; SMILES CC(C)C[C@H](NC(=O)[C@@H]1CCC(=O)N1)C(=O)N[C@@H](CC(N)=O)C(=O)N[C@@H](Cc1ccccc1)C(=O)N[C@H](C(=O)N1CCC[C@H]1C(=O)N[C@@H](CC(N)=O)C(=O)N[C@@H](Cc1c[nH]c2ccccc12)C(=O)NCC(=O)N[C@H](C(N)=O)[C@@H](C)O)[C@@H](C)O; listed as Locusta migratoria) [SEQ ID NO: 18, reference compound]	–	–	–	active	–
pGlu-Leu-Thr-Phe-Thr-Ser-Ser-Trp-GlyNH2 ([pGlu]LTFTSSWG-NH2; SMILES CC(C)C[C@H](NC(=O)[C@@H]1CCC(=O)N1)C(=O)N[C@H](C(=O)N[C@@H](Cc1ccccc1)C(=O)N[C@H](C(=O)N[C@@H](CO)C(=O)N[C@@H](CO)C(=O)N[C@@H](Cc1c[nH]c2ccccc12)C(=O)NCC(N)=O)[C@@H](C)O)[C@@H](C)O; listed as Manduca sexta) [SEQ ID NO: 23, reference compound]	–	–	–	active	–
pGlu-Val-Asn-Phe-Ser-Pro-Gly-Trp-Gly-ThrNH2 ([pGlu]VNFSPGWGT-NH2; SMILES CC(C)[C@H](NC(=O)[C@@H]1CCC(=O)N1)C(=O)N[C@@H](CC(N)=O)C(=O)N[C@@H](Cc1ccccc1)C(=O)N[C@@H](CO)C(=O)N1CCC[C@H]1C(=O)NCC(=O)N[C@@H](Cc1c[nH]c2ccccc12)C(=O)NCC(=O)N[C@H](C(N)=O)[C@@H](C)O; listed as Blaberus discoidalis) [SEQ ID NO: 19, reference compound]	–	–	–	active	–
